For 97 compounds, cytotoxicity results are on record in ChEMBL document CHEMBL3507680, “University of Dundee, Gates Library screen for HepG2 cell viability”.

The data set in a line: Human HepG2 cell viability assay in 384 well format. The following applies: HepG2 cells, read-out: Inhibition. On the set-up: dose 125 nL, time 70.5 hour; cytotoxicity at 70.5 h: concentration not given beside the values. Type of data set: toxicity, cell-based.
For the compound `CCN(c1ccsc1C(=O)N1CCC(C)CC1)S(=O)(=O)c1ccccc1`, the cytotoxicity at 70.5 h was -11.9%. Consider `CCN(c1ccsc1C(=O)N1CCSCC1)S(=O)(=O)c1ccccc1`, for which the cytotoxicity at 70.5 h was 6.6%.

`CCN(c1ccsc1C(=O)N1CCSCC1)S(=O)(=O)c1ccc(Cl)cc1`: the cytotoxicity at 70.5 h is -3.47%. As for `Cc1ccc(NC(=O)Cn2ncc(SCC(N)=O)c(Cl)c2=O)cc1`, the cytotoxicity at 70.5 h was -7.72%. Consider `Cc1cc(NC(=O)Cn2ncc(SCC(N)=O)c(Cl)c2=O)ccc1Br`, for which the cytotoxicity at 70.5 h was -5.33%. For `O=C(C1=NN(Cc2ccccc2)c2ccccc2S1(=O)=O)N1CCCC1`, the cytotoxicity at 70.5 h was -0.281%. In the case of `CC(C)Cn1nc2ccc(S(=O)(=O)N3CCC(C)CC3)cn2c1=O`, the cytotoxicity at 70.5 h is -10.3%. `CC1CCN(C(=O)c2cn(-c3cc(N4CCSCC4)ncn3)cn2)CC1`: the cytotoxicity at 70.5 h was found to be 3.74%. With `O=C(c1cn(-c2cc(N3CCSCC3)ncn2)cn1)N1CCOCC1`, the cytotoxicity at 70.5 h was found to be 23.9%. Take `CNC(=O)C1CCCN(c2nc3c(-c4ccccc4)csc3c(=O)[nH]2)C1` (configuration not stated): the cytotoxicity at 70.5 h is 4.92%. In the case of `Cc1ccc(-c2csc3c(=O)[nH]c(N4CCCC(C(=O)O)C4)nc23)cc1` (configuration not stated), the cytotoxicity at 70.5 h was 3.06%. Take `COCCCNC(=O)Cc1cc(-c2ccccc2)on1`: the cytotoxicity at 70.5 h is -0.233%. Turning to `CCOc1nn(CC)cc1-c1nnc(SCc2cccnc2)n1C`, the cytotoxicity at 70.5 h is -5.3%. As for `COCCN1C(=O)CC[C@@H]2[C@H]1CCN2C(=O)N(C)C`, the cytotoxicity at 70.5 h is -8.72%. Take `O=C(C1CCC1)N1CCO[C@@H]2CNC[C@@H]21`: the cytotoxicity at 70.5 h worked out at 12.9%. For `CC(C)N(C)Cc1ncn2c1CN(CC(=O)N(C)C)CCC2`, the cytotoxicity at 70.5 h was found to be 8.76%.

In the case of `CCOC(=O)C1CN(S(=O)(=O)C2CC2)Cc2ncn(CC)c21` (configuration not stated), the cytotoxicity at 70.5 h was 11%. In the case of `COCCN(CCOC)C(=O)c1ccn(-c2ccc3ccccn23)n1`, the cytotoxicity at 70.5 h is 11.4%. `CCN1C(=O)CC(c2cnn(C)c2)C12CCN(C(=O)c1ccc[nH]1)CC2` (configuration not stated): the cytotoxicity at 70.5 h was -1.7%.

For `CCOC(=O)C1CN(C(=O)COC)Cc2ncn(CC)c21` (configuration not stated), the cytotoxicity at 70.5 h was -5.03%. With `CN1CC2(CCN(Cc3cccnc3)CC2)c2cc(F)ccc21` the figure was -3.7%; with `CN(C)Cc1cc(=O)n2c(n1)CN(Cc1ccco1)CCC2`, -4.34%.

As to `CCOC(=O)C1CN(C(=O)C2CCOCC2)Cc2ncn(CC)c21` (configuration not stated), the cytotoxicity at 70.5 h was -3.55%.

As to `CCN1C(=O)CC(c2cnn(C)c2)C12CCN(C(=O)c1ccoc1)CC2` (configuration not stated), the cytotoxicity at 70.5 h is -0.434%.

As for `CC(C)CNC(=O)N1CCC2(CCCO2)C1` (configuration not stated), the cytotoxicity at 70.5 h was -1.61%. With `CC(=O)N1CCCn2c(nc(CNS(=O)(=O)C3CC3)cc2=O)C1` the figure was -2.61%.

For `CCC(CC)NC(=O)c1ccc2nnc(C3CCN(C(C)=O)C3)n2c1` (configuration not stated), the cytotoxicity at 70.5 h was 5.94%. On to `O=C(NC1CCCC1)c1nc2c(o1)CN(C(=O)CCO)C2`, for which the cytotoxicity at 70.5 h is -4.91%. In the case of `CCS(=O)(=O)N1CCOC2(CCCN(c3ncc(F)cn3)C2)C1` (configuration not stated), the cytotoxicity at 70.5 h was -4.67%. With `O=c1cc(CNS(=O)(=O)C2CC2)nc2n1CCCNC2`, the cytotoxicity at 70.5 h was -2.64%. Turning to `CC(C)NC(=O)c1ccc2nnc(C3CCN(C(=O)NC(C)C)C3)n2c1` (configuration not stated), the cytotoxicity at 70.5 h was -0.652%. `Cc1nc(-c2cc(C(=O)N3CCN(C)CC3)c3ccccn23)cn1C`: the cytotoxicity at 70.5 h was -0.647%. With `CC(=O)N1CCC(c2nnc3ccc(C(=O)NC(C)C)cn23)C1` (configuration not stated) the figure was -1.85%; with `O=C(NC1CCCC1)c1nc2c(o1)CN(CCO)C2`, -0.956%. Regarding `COC1COC2(CCN(C(=O)c3cscn3)CC2)C1` (configuration not stated), the cytotoxicity at 70.5 h is -6.82%.

For `CN(C)C(=O)CNC(=O)c1ccc2c(-c3nccs3)noc2c1`, the cytotoxicity at 70.5 h is -3.55%. `O=C1COC2(CCN(c3ncccn3)CC2)CN1c1ccsc1`: the cytotoxicity at 70.5 h is -4.75%. On to `CCC(=O)N1CCC2(CC1)CC(CC(N)=O)c1ccc(F)cc12` (configuration not stated), for which the cytotoxicity at 70.5 h was -7.49%.

With `CC(C)N(C)Cc1noc2c1CN(C(=O)c1ccsc1)CC2`, the cytotoxicity at 70.5 h is -12.5%. Take `COc1cc(N2CCc3ncnc(-c4cnn(C)c4)c3CC2)ncn1`: the cytotoxicity at 70.5 h is -12%.

Turning to `CN(C)CCNC(=O)c1ccc2c(-c3nccs3)noc2c1`, the cytotoxicity at 70.5 h is -8.08%.

For `COC[C@]12COC[C@H]1CN(C(=O)C1CCSCC1)C2`, the cytotoxicity at 70.5 h was -6.73%. Regarding `O=C(NCCN1CCCC1)c1ccc2c(-c3nccs3)noc2c1`, the cytotoxicity at 70.5 h is -6.42%. Regarding `CNC(=O)c1cnc2n1CCN(Cc1cccnc1OC)C2`, the cytotoxicity at 70.5 h is -4.55%.

In the case of `CC1c2ncc(Cn3cncn3)n2CCN1C(=O)Cc1cccs1` (configuration not stated), the cytotoxicity at 70.5 h is -6.55%. As for `CCOCc1cnc2n1CCN(C(=O)Cc1ccco1)C2C` (configuration not stated), the cytotoxicity at 70.5 h was -6.58%. With `C[C@H]1C[C@@H]2CCN(CC3CCOCC3)C[C@H]2O1` the figure was -7.97%; with `CC(C)N1c2sc(-c3ccsc3)nc2CC1C(=O)NC1CCCC1` (configuration not stated), -7.06%. As for `Nc1nc(N2CCCCCC2)ncc1C(=O)NCc1ccc(F)c(Cl)c1`, the cytotoxicity at 70.5 h is -10.8%. Turning to `Cc1cc(=O)[nH]c(=O)n1COCc1ccccc1`, the cytotoxicity at 70.5 h is -18.6%. `COC(=O)CC1CCN(C(=O)c2ccc(C)cc2)CC1`: the cytotoxicity at 70.5 h is -4.4%.

Regarding `Cn1nnnc1SCc1cc2c(cc1Cl)OCO2`, the cytotoxicity at 70.5 h is -16%. As for `CN1C(=O)C2(CCN(Cc3cccnc3)CC2)c2cccc(F)c21`, the cytotoxicity at 70.5 h was -3.56%. On to `c1csc(-c2noc(C3CCCNC3)n2)c1` (configuration not stated), for which the cytotoxicity at 70.5 h was -16.5%. Consider `CC(C)N1[C@H](Cn2cncn2)C[C@@H]2CNCC[C@@H]21`, for which the cytotoxicity at 70.5 h was 0.707%.

As to `O=C(Cc1ccsc1)N1C[C@@H]2OCCN(c3cnccn3)[C@@H]2C1`, the cytotoxicity at 70.5 h amounted to 12.1%. `COCCN1CCCc2sc(C(=O)Nc3ccc(C)nc3)nc21`: the cytotoxicity at 70.5 h is -0.226%.

Regarding `c1coc(CN2CCn3c(COCC4CC4)nnc3C2)c1`, the cytotoxicity at 70.5 h is 0.787%. As for `CCCN1CCC2(C1)c1ccccc1S(=O)(=O)N2C` (configuration not stated), the cytotoxicity at 70.5 h was -0.72%. With `COCCN1CCC2(C1)c1ccccc1S(=O)(=O)N2Cc1ccccc1` (configuration not stated), the cytotoxicity at 70.5 h was 1.99%. Consider `CC(C)N1[C@H](Cn2cncn2)C[C@@H]2CN(c3ncccn3)CC[C@@H]21`, for which the cytotoxicity at 70.5 h is -0.391%. Take `COCCN1CCC2(C1)CN(c1ncc(F)cn1)C2`: the cytotoxicity at 70.5 h amounted to 0.704%. In the case of `CC(C)N1CCO[C@H]2CN(C(=O)Cc3ccsc3)C[C@H]21`, the cytotoxicity at 70.5 h was -2.31%. Take `CCOC(=O)C1CN(CC2CC2)Cc2ncn(CC)c21` (configuration not stated): the cytotoxicity at 70.5 h was -2.34%.

In the case of `COCCN1CCO[C@@H]2CN(C(=O)NCc3ccccc3)CC[C@@H]2C1`, the cytotoxicity at 70.5 h is 2.53%.

Turning to `Cn1cc(N2C[C@@H]3CN(CC4CCOCC4)C[C@@H]3C2=O)cn1`, the cytotoxicity at 70.5 h was found to be 2.05%. Take `O=C(NCC1Cn2nnc(-c3ccncc3)c2CO1)c1ccsc1` (configuration not stated): the cytotoxicity at 70.5 h is 1.38%. With `CC(C)c1nc(-c2cc(C(=O)N3CCN(C)CC3)c3ccccn23)cs1` the figure was 9.79%; with `O=C(C1CN(CC2CC2)CC12CCOCC2)N1CCOCC1` (configuration not stated), -1.96%. As for `O=C1[C@H]2CN(CC3CCOCC3)C[C@H]2CN1c1ccsc1`, the cytotoxicity at 70.5 h was -1.42%. On to `CC(C)n1ccc(-c2cc(C(=O)N3CCN(C)CC3)c3ccccn23)n1`, for which the cytotoxicity at 70.5 h is -3.84%. Regarding `O=S(=O)(C1CC1)N1CCC2(CCN(Cc3nccs3)CC2)CC1`, the cytotoxicity at 70.5 h is -2.17%. On to `CS(=O)(=O)N1CCC2(CCN(Cc3nccs3)CC2)CC1`, for which the cytotoxicity at 70.5 h is -0.411%.

In the case of `CN(C)S(=O)(=O)N1CC[C@]2(C[C@H](OCc3ccncc3)CO2)C1`, the cytotoxicity at 70.5 h is -0.865%. Turning to `OCCN1CCC2(CCc3cc(-c4ccoc4)ccc32)CC1`, the cytotoxicity at 70.5 h is -2.95%. On to `c1ccc(CCNCC2Cn3nncc3CO2)cc1` (configuration not stated), for which the cytotoxicity at 70.5 h is -0.333%. For the compound `Cc1ccc(CN2CC[C@H]3[C@H]2CCN3S(=O)(=O)C2CC2)cc1`, the cytotoxicity at 70.5 h was -6.33%.

On to `COCCN1CCN(S(=O)(=O)C2CC2)Cc2ccc(C)nc21`, for which the cytotoxicity at 70.5 h is -5.69%. As for `CN(C)Cc1nc2c(o1)CN(C(=O)NCc1cccc(F)c1)C2`, the cytotoxicity at 70.5 h is -5.42%. With `O=C(c1cocn1)N1CCC2(CC1)CC(Oc1ccccn1)CO2` (configuration not stated) the figure was -8.48%.

Consider `COCCN1CCC2(COCCN(C(=O)Cc3cccs3)C2)C1` (configuration not stated), for which the cytotoxicity at 70.5 h is -5.29%.

On to `Cc1ccc(N2C[C@@H]3CN(Cc4ccsc4)CCO[C@@H]3C2)nn1`, for which the cytotoxicity at 70.5 h is -11.5%. For the compound `Fc1ccc(CN2CCC3(CCN(Cc4nccs4)CC3)C2)cc1`, the cytotoxicity at 70.5 h is -0.695%. Take `c1cc2c(cc1CN1CC[C@H]3CO[C@H](CN4CCCC4)[C@H]3C1)OCO2`: the cytotoxicity at 70.5 h is -1.72%. As for `Fc1ccc(CN2CCOCC3(CCN(Cc4nccs4)C3)C2)cc1` (configuration not stated), the cytotoxicity at 70.5 h was -1.05%. For the compound `CNC(=O)CN1CCO[C@H]2CN(CC3CCOC3)C[C@H]21` (some centres not stated), the cytotoxicity at 70.5 h is -1.2%.

With `CNC(=O)CN1CCO[C@H]2CN(CC3CCOCC3)C[C@H]21`, the cytotoxicity at 70.5 h was -2.33%. With `COCCN1CCCn2cnc(CN(C)C(C)C)c2C1`, the cytotoxicity at 70.5 h was found to be 4.24%. Consider `CN(C)CCOCc1nnc2n1CCN(Cc1ccsc1)C2`, for which the cytotoxicity at 70.5 h is 2.24%. With `c1cncc(-c2ccc3c(c2)CCC32CCN(Cc3nccs3)CC2)c1` the figure was -2.27%; with `CN(C)CCN1CCC2(CCCN(C(=O)C3CCC3)C2)CC1`, -1.03%; with `COCC(=O)N1CCCC2(CCN(CCN3CCCC3)CC2)C1`, -1.48%. For the compound `CN(C)CC(=O)N1CCC2(CCc3cc(-c4cccnc4)ccc32)CC1`, the cytotoxicity at 70.5 h is -0.278%. With `c1csc(CN2CCC3(CC2)CCN(CC2CC2)CC3)n1` the figure was 14.9%; with `CN1CCC(NC(=O)[C@H]2CC[C@@H]3[C@@H](CCN3c3ncccn3)O2)CC1`, -6.76%. On to `C[C@@H]1CN(C2CCOCC2)C[C@]12CCN(c1cccnc1)C2=O`, for which the cytotoxicity at 70.5 h was -5.4%. Consider `COc1ncccc1CN1CCn2c(C(=O)N3CCCC3)cnc2C1`, for which the cytotoxicity at 70.5 h was -5.02%.
